Reference: US20240131032A1, “AN ACTIVITY-GUIDED MAP OF ELECTROPHILE-CYSTEINE INTERACTIONS IN PRIMARY HUMAN IMMUNE CELLS” (The Scripps Research Institute, priority 2019, published 2024)

Assays:
MYD88 = biological target: T1, MYD88 (Homo sapiens, UniProt Q99836); experiment: isoTOP-ABPP and TMT-ABPP cysteine engagement, MYD88; format: binding
T1 construct: endogenous in cells
Protocol: (§1) Activated or expanded T cells were re-suspended in RPMI media supplemented with 10% FBS, L-glutamine (2 mM), penicillin (100 U/mL), and streptomycin (100 μg/mL) at 2×10^6 cells/mL. The compounds were added to cells as 1000×DMSO stocks and mixed well with the media by pipetting up and down after addition. The cells were kept at 37° C. in 5% CO2 containing incubators for 3 h (or otherwise specified times), then pelleted by centrifugation (524 g, 5 min, 4° C.), washed with cold PBS (10 mL) and transferred to Eppendorf tubes (1 mL PBS). The cells were pelleted again (524 g, 5 min, 4° C.), flash-frozen, and kept at −80° C. until further analysis.
Activated or expanded primary human T cells were re-suspended in RPMI (1×10^6 cells/mL) containing 10% fetal bovine serum (FBS), penicillin (100 U/mL), streptomycin ([…]), and L-glutamine (2 mM). The cells were treated with DMSO or compounds for 3 h, pelleted (524 g, 5 min), washed with PBS, and lysed by sonication (2×8 pulses). Soluble and particulate proteomic fractions were separated by ultracentrifugation (100,000 g, 45 min), and protein concentration was normalized to 1.7 mg/mL using a standard DC protein assay (Bio-Rad). The resulting proteomes were analyzed by competitive isotopic Tandem Orthogonal Proteolysis Activity-Based Protein Profiling (isoTOP-ABPP). […]
The heavy/light isoTOP-ABPP ratios (R values) for each unique peptide (DMSO/compound treated) were quantified with in-house CIMAGE software (Weerapana et al., 2010) using default parameters (3 MS1 acquisitions per peak and signal to noise threshold set to 2.5). Site-specific engagement of cysteine residues was assessed by blockade of IA-alkyne probe labeling. […] Ratios for unique peptide sequences were calculated for each experiment; overlapping peptides with the same modified cysteine (e.g., different charge states, elution times or tryptic termini) were grouped together and the median ratio was reported as the final ratio (R). […]

TMEM173 = biological target: T2, TMEM173 (Homo sapiens, UniProt Q86WV6); experiment: isoTOP-ABPP and TMT-ABPP cysteine engagement, TMEM173; format: binding
T2 construct: endogenous in cells; host or cells: primary human T cells
Protocol: as §1
(§2) Activated or expanded primary human T cells were re-suspended in RPMI (1×10^6 cells/mL) containing 10% fetal bovine serum (FBS), penicillin (100 U/mL), streptomycin ([…]), and L-glutamine (2 mM). […] The resulting proteomes were analyzed by competitive isotopic Tandem Orthogonal Proteolysis Activity-Based Protein Profiling (isoTOP-ABPP). […]
(§3) The heavy/light isoTOP-ABPP ratios (R values) for each unique peptide (DMSO/compound treated) were quantified with in-house CIMAGE software (Weerapana et al., 2010) using default parameters (3 MS1 acquisitions per peak and signal to noise threshold set to 2.5). Site-specific engagement of cysteine residues was assessed by blockade of IA-alkyne probe labeling. […]

BIRC2 = BIRC2 (Homo sapiens, UniProt Q13490); experiment: isoTOP-ABPP and TMT-ABPP cysteine engagement, BIRC2; format: binding; design: endogenous in cells; host or cells: primary human T cells
Protocol: as §1, §2, §3

[1] = test system: CRISPR/Cas9-edited primary human T cells; experiment: T cell activation after CRISPR/Cas9 target disruption plus compound (FACS CD25/CD69); format: cell-based
Protocol: DNA templates consisting of a T7 RNA Polymerase promoter, the ˜20 nt target-specific sequence, and the chimeric sgRNA scaffold were generated for each desired target by overlapping PCR using Q5 High Fidelity Master Mix (New England Biolabs) under the following conditions: 98° C. for 2 min; 50° C. for 10 min; 72° C. for 10 min. Guide RNA templates were used to transcribe guide RNAs using the HiScribe T7 High Yield RNA Synthesis kit (New England Biolabs) according to the manufacturer's instructions. Following in vitro transcription, guides were purified using Monarch RNA Cleanup Kit (New England Biolabs) following manufacturer's instructions.
The Cas9 RNPs were assembled before transfection using the ArciTect™ Cas9-eGFP Nuclease (StemCell) with the T7 transcribed RNAs at a molar ratio of 1:3 in Buffer T. For each target of interest, the genome was tiled with 3 unique guide RNAs. Before the transfection, primary T cells were preactivated on αCD3/αCD28-precoated plates in complete RPMI medium supplemented with 100 U/mL IL2 for 48 h. The T cells were then washed with PBS and resuspended in Buffer T (10×10^6 cells/mL) and the Cas9 RNP transfections were performed using the Neon Transfection system (ThermoFisher). Following the Cas9 RNP transfection, T cells were cultured in RPMI supplemented with 50 U/mL IL2 for 7 days. […]

T2 sequence (Q86WV6 whole entry H232R): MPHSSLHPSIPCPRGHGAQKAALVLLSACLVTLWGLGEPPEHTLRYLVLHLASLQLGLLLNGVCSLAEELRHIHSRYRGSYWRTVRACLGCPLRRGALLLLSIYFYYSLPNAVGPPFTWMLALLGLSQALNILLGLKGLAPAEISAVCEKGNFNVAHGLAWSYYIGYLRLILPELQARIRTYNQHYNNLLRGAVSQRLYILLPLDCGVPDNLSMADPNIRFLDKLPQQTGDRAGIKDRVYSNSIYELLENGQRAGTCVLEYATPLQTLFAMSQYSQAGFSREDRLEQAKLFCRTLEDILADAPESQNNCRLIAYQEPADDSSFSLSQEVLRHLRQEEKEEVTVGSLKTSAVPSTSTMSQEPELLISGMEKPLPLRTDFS
Sequence of BIRC2 (Q13490 whole entry): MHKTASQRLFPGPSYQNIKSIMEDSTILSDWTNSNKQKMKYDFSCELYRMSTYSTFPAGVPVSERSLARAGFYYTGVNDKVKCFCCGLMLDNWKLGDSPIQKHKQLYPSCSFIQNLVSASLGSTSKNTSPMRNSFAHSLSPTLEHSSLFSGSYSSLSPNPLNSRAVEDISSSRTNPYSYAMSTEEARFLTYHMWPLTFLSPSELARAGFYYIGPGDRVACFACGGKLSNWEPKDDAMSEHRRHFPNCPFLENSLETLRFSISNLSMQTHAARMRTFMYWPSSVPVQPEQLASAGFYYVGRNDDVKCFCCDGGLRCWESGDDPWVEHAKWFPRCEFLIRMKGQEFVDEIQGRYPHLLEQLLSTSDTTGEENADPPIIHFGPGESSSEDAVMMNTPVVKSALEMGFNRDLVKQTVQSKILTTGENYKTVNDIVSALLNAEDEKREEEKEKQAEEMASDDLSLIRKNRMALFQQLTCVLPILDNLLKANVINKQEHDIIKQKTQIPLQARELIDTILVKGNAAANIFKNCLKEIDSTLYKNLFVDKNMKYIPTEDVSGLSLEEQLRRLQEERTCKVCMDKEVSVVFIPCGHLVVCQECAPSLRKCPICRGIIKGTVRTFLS
T1 sequence (Q99836 whole entry): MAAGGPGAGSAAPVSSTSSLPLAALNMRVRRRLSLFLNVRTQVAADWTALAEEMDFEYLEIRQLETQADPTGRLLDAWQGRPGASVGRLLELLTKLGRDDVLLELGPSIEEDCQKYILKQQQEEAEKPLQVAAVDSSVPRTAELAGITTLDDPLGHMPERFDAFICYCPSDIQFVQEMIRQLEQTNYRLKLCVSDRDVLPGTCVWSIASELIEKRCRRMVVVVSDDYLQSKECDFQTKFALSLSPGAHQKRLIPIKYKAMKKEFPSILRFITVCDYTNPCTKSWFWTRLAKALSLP

Compound	labeling of C203 of MYD88 (MYD88)	labeling of C91 of TMEM173 (TMEM173)	engagement of C45 of BIRC2 (BIRC2)	T cell activation in sgERCC3 cells ([1]; CRISPR/Cas9 disruption of ERCC3)	T cell activation in BIRC2/BIRC3-null cells ([1]; CRISPR/Cas-9 disruption of BIRC2 and BIRC3)
C=CC(=O)N(Cc1cccc(Cl)n1)c1ccc(C(=O)Nc2ccccc2)nc1 [BPK-25]	direct labeling of C203	direct labeling of C91			
COC(=O)/C=C/C(=O)OC [DMF, reference compound]			engaged		
C=CC(=O)N(Cc1cccc(Cl)c1Cl)c1ccc(Oc2ccccc2)c(C(F)(F)F)c1 [BPK-21]		direct labeling of C91		only a modest further reduction in activation	
O=C(CCl)N1CCN(S(=O)(=O)c2ccc(-c3ccncc3)cc2)CC1 [EV-3]			engaged		further decreased T cell activation
